Test results: paper PMC6199744, “Development of Chemical Proteomics for the Folateome and Analysis of the Kinetoplastid Folateome” (ACS Infectious Diseases, 2018)
Like-named read-outs stand apart in the source and are kept apart here.

Key:
Assay type in all cases: binding
[1] = target: T1, HeLa cell extract proteins (Homo sapiens, UniProt O95831)
T1 construct: endogenous in cells; host or cells: HeLa cell extract

[2] = target: T2, HeLa cell extract proteins (Homo sapiens, UniProt P04183)
T2 construct: endogenous in cells; host or cells: HeLa cell extract
T2 sequence (P04183 1-234): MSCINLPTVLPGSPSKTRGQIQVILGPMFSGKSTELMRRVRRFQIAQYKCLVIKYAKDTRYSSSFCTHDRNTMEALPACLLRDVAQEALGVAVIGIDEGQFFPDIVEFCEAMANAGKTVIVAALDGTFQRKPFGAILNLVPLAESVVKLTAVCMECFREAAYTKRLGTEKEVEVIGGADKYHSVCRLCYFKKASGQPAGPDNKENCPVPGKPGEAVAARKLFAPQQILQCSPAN

[3] = target: T3, HeLa cell extract proteins (Homo sapiens, UniProt P06454)
T3 construct: endogenous in cells; host or cells: HeLa cell extract
T3 sequence (P06454 1-111): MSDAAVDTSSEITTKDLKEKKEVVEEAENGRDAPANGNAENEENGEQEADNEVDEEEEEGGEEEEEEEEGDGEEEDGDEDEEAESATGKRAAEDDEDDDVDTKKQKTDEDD

[4] = target: T4, HeLa cell extract proteins (Homo sapiens, UniProt P07355)
T4 construct: endogenous in cells; host or cells: HeLa cell extract

[5] = target: T5, HeLa cell extract proteins (Homo sapiens, UniProt P24752)
T5 construct: endogenous in cells; host or cells: HeLa cell extract
T5 sequence (P24752 34-427): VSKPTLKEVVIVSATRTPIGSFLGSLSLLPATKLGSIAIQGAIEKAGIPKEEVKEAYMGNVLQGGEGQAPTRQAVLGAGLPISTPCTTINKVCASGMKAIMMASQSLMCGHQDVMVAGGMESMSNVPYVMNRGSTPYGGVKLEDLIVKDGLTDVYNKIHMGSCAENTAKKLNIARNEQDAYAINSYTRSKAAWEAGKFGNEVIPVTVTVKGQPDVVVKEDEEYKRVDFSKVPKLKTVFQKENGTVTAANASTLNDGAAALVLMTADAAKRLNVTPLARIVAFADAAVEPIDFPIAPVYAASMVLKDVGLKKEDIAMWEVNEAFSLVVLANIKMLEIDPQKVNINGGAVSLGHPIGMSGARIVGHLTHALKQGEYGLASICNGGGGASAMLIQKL

[6] = target: T6, HeLa cell extract proteins (Homo sapiens, UniProt P32119)
T6 construct: endogenous in cells; host or cells: HeLa cell extract
T6 sequence (P32119 1-198): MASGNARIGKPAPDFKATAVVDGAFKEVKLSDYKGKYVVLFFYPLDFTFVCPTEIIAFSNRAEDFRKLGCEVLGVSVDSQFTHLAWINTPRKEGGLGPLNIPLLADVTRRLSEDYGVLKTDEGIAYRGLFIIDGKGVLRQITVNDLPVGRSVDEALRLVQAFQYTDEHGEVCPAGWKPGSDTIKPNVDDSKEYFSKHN

[7] = target: T7, HeLa cell extract proteins (Homo sapiens, UniProt P49411)
T7 construct: endogenous in cells; host or cells: HeLa cell extract

[8] = target: T8, HeLa cell extract proteins (Homo sapiens, UniProt P53999)
T8 construct: endogenous in cells; host or cells: HeLa cell extract

[9] = target: T9, HeLa cell extract proteins (Homo sapiens, UniProt P60228)
T9 construct: endogenous in cells; host or cells: HeLa cell extract

[10] = target: T10, HeLa cell extract proteins (Homo sapiens, UniProt Q15436)
T10 construct: endogenous in cells; host or cells: HeLa cell extract

[11] = target: T11, HeLa cell extract proteins (Homo sapiens, UniProt Q8IUH3)
T11 construct: endogenous in cells; host or cells: HeLa cell extract
T11 sequence (Q8IUH3 1-476): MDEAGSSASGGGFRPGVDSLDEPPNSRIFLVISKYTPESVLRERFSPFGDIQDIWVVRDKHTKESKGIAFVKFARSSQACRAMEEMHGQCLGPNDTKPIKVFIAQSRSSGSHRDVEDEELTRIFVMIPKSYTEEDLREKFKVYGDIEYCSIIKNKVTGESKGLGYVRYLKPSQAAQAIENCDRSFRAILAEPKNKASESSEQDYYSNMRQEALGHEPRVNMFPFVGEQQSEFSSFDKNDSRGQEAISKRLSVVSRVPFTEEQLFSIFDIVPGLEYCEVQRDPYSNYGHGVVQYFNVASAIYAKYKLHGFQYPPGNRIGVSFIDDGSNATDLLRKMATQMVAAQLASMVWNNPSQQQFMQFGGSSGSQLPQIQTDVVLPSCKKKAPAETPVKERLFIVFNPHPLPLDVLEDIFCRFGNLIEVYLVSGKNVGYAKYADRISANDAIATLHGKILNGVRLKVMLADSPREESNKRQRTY

[12] = target: T12, HeLa cell extract proteins (Homo sapiens, UniProt Q9H479)
T12 construct: endogenous in cells; host or cells: HeLa cell extract
T12 sequence (Q9H479 1-309): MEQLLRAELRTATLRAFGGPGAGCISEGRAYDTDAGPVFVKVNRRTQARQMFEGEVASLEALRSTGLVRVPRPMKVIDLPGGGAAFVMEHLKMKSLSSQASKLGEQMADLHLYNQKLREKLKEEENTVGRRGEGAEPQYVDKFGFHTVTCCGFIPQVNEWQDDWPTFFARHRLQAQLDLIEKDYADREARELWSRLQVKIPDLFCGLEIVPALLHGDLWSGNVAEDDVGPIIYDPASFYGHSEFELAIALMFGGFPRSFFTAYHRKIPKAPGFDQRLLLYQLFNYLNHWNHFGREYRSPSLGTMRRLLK

[13] = target: T13, HeLa cell extract proteins (Homo sapiens, UniProt Q9NX63)
T13 construct: endogenous in cells; host or cells: HeLa cell extract
T13 sequence (Q9NX63 1-227): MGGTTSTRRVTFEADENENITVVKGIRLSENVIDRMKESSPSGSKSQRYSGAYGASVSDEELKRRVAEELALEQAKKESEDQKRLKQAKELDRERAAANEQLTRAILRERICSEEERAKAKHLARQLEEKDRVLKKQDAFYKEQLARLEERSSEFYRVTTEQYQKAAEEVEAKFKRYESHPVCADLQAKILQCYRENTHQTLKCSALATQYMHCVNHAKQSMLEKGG

[14] = HeLa, protein PTMA (15 KDA PROTEIN.)
[15] = HeLa, protein TK1 (29 KDA PROTEIN)
[16] = HeLa, protein RBM45 (ISOFORM 1 OF DEVELOPMENTALLY-REGULATED RNA-BINDING PROTEIN 1)
[17] = HeLa, protein FN3K (FRUCTOSAMINE-3-KINASE)

T9 sequence (P60228 whole entry): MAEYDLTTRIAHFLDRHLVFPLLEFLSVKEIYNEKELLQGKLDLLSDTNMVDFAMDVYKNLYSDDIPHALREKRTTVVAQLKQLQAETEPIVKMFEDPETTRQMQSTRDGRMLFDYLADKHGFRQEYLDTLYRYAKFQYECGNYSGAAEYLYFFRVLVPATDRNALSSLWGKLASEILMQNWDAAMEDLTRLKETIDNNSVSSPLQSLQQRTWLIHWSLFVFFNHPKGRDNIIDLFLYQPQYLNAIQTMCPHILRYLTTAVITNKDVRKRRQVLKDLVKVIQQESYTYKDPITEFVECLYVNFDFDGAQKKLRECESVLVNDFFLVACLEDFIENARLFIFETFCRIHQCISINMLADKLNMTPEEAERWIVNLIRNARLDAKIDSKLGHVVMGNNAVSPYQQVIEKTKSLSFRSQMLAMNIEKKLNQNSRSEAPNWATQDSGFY
T4 sequence (P07355 whole entry): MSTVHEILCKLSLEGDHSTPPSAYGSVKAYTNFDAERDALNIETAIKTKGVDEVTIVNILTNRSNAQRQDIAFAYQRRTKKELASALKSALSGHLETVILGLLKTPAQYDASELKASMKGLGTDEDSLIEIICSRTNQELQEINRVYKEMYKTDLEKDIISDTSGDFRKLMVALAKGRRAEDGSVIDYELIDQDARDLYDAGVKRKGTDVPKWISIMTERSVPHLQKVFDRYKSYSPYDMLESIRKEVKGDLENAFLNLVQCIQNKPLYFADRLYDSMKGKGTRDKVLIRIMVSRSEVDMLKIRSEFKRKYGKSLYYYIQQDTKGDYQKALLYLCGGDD
T10 sequence (Q15436 whole entry): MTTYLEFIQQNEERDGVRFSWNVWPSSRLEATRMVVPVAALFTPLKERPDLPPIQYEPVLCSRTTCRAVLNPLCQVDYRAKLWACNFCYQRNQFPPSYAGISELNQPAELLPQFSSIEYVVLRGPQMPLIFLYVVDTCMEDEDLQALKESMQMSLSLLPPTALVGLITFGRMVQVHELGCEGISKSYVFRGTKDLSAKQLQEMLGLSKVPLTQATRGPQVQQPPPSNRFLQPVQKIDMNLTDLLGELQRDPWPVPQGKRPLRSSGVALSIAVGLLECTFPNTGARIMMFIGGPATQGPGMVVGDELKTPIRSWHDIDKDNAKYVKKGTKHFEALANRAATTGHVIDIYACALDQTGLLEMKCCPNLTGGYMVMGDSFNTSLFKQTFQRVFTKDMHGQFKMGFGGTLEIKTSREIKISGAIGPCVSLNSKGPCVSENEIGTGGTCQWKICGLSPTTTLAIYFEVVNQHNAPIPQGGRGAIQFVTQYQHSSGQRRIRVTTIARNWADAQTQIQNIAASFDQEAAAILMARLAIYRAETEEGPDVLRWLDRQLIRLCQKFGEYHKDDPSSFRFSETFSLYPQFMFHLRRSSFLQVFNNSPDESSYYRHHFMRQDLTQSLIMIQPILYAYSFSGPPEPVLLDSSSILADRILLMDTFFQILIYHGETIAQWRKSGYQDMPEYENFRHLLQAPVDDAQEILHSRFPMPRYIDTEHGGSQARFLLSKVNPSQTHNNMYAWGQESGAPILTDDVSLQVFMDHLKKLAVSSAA
T1 sequence (O95831 102-613): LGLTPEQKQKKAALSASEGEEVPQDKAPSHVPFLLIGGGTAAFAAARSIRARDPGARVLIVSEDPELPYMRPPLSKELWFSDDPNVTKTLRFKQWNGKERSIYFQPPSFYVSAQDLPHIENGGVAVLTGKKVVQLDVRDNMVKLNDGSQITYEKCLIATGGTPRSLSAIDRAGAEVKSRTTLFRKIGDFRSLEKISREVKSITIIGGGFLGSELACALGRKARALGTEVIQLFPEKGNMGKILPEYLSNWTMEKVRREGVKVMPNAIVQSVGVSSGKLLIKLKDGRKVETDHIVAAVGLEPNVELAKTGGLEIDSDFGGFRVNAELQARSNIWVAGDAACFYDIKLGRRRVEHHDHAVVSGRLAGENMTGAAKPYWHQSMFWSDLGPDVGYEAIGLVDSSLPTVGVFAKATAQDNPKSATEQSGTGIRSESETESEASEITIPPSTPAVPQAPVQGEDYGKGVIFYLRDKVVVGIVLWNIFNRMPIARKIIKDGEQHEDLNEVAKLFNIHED

| Compound | fold changes relative to vehicle control ([1]; captured protein AIFM1, HeLa) | fold changes relative to vehicle control ([2]; protein TK1, HeLa) | fold changes relative to vehicle control [3, 14] [fold] | fold changes relative to vehicle control ([4]; protein ANXA2, HeLa) | fold changes relative to vehicle control ([5]; protein ACAT1, HeLa) | fold changes relative to vehicle control ([6]; protein PRDX2, HeLa) | fold changes relative to vehicle control ([7]; protein TUFM, HeLa) | fold changes relative to vehicle control ([8]; protein SUB1, HeLa) | fold changes relative to vehicle control ([9]; protein EIF3E, HeLa) | fold changes relative to vehicle control ([10]; HeLa, protein SEC23A) | fold changes relative to vehicle control ([11]; HeLa, protein RBM45) | fold changes relative to vehicle control ([12]; protein FN3K, HeLa) | fold changes relative to vehicle control ([13]; captured protein CHCHD3, HeLa) | fold changes relative to vehicle control ([1]; protein AIFM1, HeLa) | fold changes relative to vehicle control [2, 15] | fold changes relative to vehicle control ([3]; protein PTMA, HeLa) | fold changes relative to vehicle control ([4]; HeLa, protein ANXA2) | fold changes relative to vehicle control ([6]; HeLa, captured protein PRDX2) | fold changes relative to vehicle control ([8]; HeLa, protein SUB1) | fold changes relative to vehicle control ([9]; HeLa, protein EIF3E) | further results |
| --- | --- | --- | --- | --- | --- | --- | --- | --- | --- | --- | --- | --- | --- | --- | --- | --- | --- | --- | --- | --- | --- |
| Nc1nc2cccc(-c3ccccc3)c2n1Cc1ccc(Cl)c(Cl)c1 [compound 3] | 0.92 | 1.16 | 0.68 | 0.9 | 0.84 | 0.89 | 0.92 | 1.13 | 0.99 | 1.04 | 0.96 | 1.09 | 1.02 |  |  |  |  |  |  |  |  |
| Nc1nc2[nH]cc(CCc3ccc(C(=O)N[C@@H](CCC(=O)O)C(=O)O)cc3)c2c(=O)[nH]1 [PTX, pemetrexed] |  |  |  |  |  |  |  |  |  |  |  |  |  |  |  |  |  |  |  |  | fold changes relative to vehicle control [1]: 1.01; fold changes relative to vehicle control [2]: 0.93; fold changes relative to vehicle control [3]: 0.97; fold changes relative to vehicle control [4]: 1.1; fold changes relative to vehicle control [5]: 0.9; fold changes relative to vehicle control [6]: 1.17; fold changes relative to vehicle control [7]: 0.97; fold changes relative to vehicle control [8]: 1.08; fold changes relative to vehicle control [9]: 1.04; fold changes relative to vehicle control [10]: 0.94; fold changes relative to vehicle control [11]: 1.04; fold changes relative to vehicle control [12]: 0.88; fold changes relative to vehicle control [13]: 0.98 |
| Nc1nc2c(c(=O)[nH]1)N(C=O)C(CNc1ccc(C(=O)N[C@@H](CCC(=O)O)C(=O)O)cc1)CN2 (stereo partly shown) [LEU, leucovorin] |  |  |  |  | 1 |  | 0.93 |  |  | 0.94 |  |  |  | 1.01 | 0.97 | 0.82 | 1 | 1.05 | 0.7 | 1.15 | fold changes relative to vehicle control [11, 16]: 1.12; fold changes relative to vehicle control [12, 17]: 0.93; fold changes relative to vehicle control ([13]; HeLa, protein CHCHD3): 0.92 |
| CCCCCCOc1cccc(Cc2cnc(N)nc2N)c1 [compound 2] | 1 | 1.16 | 3.52 | 1.87 | 1.75 | 2.19 | 1.68 | 0.99 | 1.21 | 1.07 | 0.99 | 1.06 | 1.08 |  |  |  |  |  |  |  |  |
| NCCOCCOCC(=O)Nc1nc2ncc(CNc3ccc(C(=O)NC(CCC(=O)O)C(=O)O)cc3)nc2c(=O)[nH]1 (stereo not shown) [compound 6] |  |  |  |  | 1.31 |  | 1.07 |  |  | 0.89 |  |  |  | 0.99 | 1.06 | 0.89 | 1.32 | 1.18 | 1.03 | 1.11 | fold changes relative to vehicle control [11, 16]: 1; fold changes relative to vehicle control [12, 17]: 0.94; fold changes relative to vehicle control ([13]; HeLa, protein CHCHD3): 1 |
| CCCCCCOc1ccc(Cc2cnc(N)nc2N)cc1 [compound 1] | 0.97 | 0.96 | 1.18 | 1.18 | 1.22 | 1.36 | 1.18 | 0.91 | 1.18 | 1.1 | 1.06 | 0.92 | 0.93 |  |  |  |  |  |  |  |  |
| NCCCNc1ccc(C(=O)NC(CCC(=O)O)C(=O)O)cc1 (stereo not shown) [compound 7] |  |  |  |  | 0.87 |  | 0.88 |  |  | 1.1 |  |  |  | 1.06 | 1.12 | 0.72 | 0.97 | 0.89 | 0.87 | 1.01 | fold changes relative to vehicle control [11, 16]: 0.96; fold changes relative to vehicle control [12, 17]: 0.99; fold changes relative to vehicle control ([13]; HeLa, protein CHCHD3): 0.99 |
